Data taken from patent US7244557B2, “Method of screening modulators of Nod1 signaling” (Regents of the University of Michigan, priority 2003, dated 2007).

Legend:
[1] = system: bone marrow-derived macrophages from nod1-deficient mice; assay: Cytokine secretion assay (ELISA), bone marrow-derived macrophages from nod1-deficient mice; type: cell-based, mouse; settings: 12 hr
Procedure: (§1) A), B), C) 3×10^5 bone marrow-derived macrophages from wild-type littermates (wt) and nod1-deficient mice were stimulated with 100 ng/ml of iE-DAP, MDP or dsRNA for 12 hr A), B). 0, 100 ng/ml Salmonella typhimurium LPS was used in the presence of 0, 1, 1000 ng/ml iE-DAP or 0, 0.1 1 μM immunostimulatory CpG as indicated for 12 hr C) The concentration of TNF-α (a) and IL-6 (b,c) were determined by ELISA using specific antibodies. Values represent the mean of normalized data±S.D. of triplicate cultures.
Reagents. LPS from S. typhimurium, intact and alkaline-detoxified LPS from E. coli O55:B5 as well as purified lipid A preparations of E. coli F583, MDP, DAP and dsRNA were obtained from Sigma-Aldrich (St. Louis, Mo.). PGN from S. aureus was from Fluka-Chemie (Buchs, Germany). Palmitoyl-Cys ((RS)-2,3-di(palmitoyloxy)-propyl)-Ala-Gly) (sBLP), was obtained from Bachem (Torrance, Calif.). The tetrameric form of the disaccharide dipeptide was described previously (Inohara et al., J. Biol. Chem. 278:5509 [2003]). iE-DAP and iQ-DAP, M3P and M4P were synthesized as described (Kitaura et al., J. Med. Chem. 25:335 [1982]) with small modification. Purification of PGN from B. subtilis 168 and C. flaccumfaciens with hydrolases, Cellosyl or recombinant AtlE (amidase domain) and the fractionation and purification of reduced B. subtilis PGN digested with Cellosyl were performed as previously described (Heilman et al., Mol. Microbiol. 24:1013 [1997]; Atrih et al., J. Bact. 181:3956 [1999]). Removal of proteins and reduction of LPS fraction. E. coli O55:B5 LPS (Sigma) was treated with proteinase K at 37° C. for 12 hr to digest contaminating proteins. To eliminate lipoproteins, LPS was subjected to modified phenol extraction with deoxycholate-containing phenol as described (Hirschfeld et al., J. Immunol. 165:618 [2000]). […] The amino acid composition of E. coli O55:B5 LPS was determined using AccQ·Tag amino acid analysis system (Waters, Milford, Mass.) after hydrolysis at 110° C. for 24 hr. […]

[2] = system: bone marrow-derived macrophages from wild-type mice; assay: Cytokine secretion assay (ELISA), bone marrow-derived macrophages from wild-type mice; type: cell-based, mouse; settings: 12 hr; for secretion of IL-6 / secretion of TNF-α: 100 ng/ml
Procedure: as §1
Reagents. LPS from S. typhimurium, intact and alkaline-detoxified LPS from E. coli O55:B5 as well as purified lipid A preparations of E. coli F583, MDP, DAP and dsRNA were obtained from Sigma-Aldrich (St. Louis, Mo.). PGN from S. aureus was from Fluka-Chemie (Buchs, Germany). Palmitoyl-Cys ((RS)-2,3-di(palmitoyloxy)-propyl)-Ala-Gly) (sBLP), was obtained from Bachem (Torrance, Calif.). The tetrameric form of the disaccharide dipeptide was described previously (Inohara et al., J. Biol. Chem. 278:5509 [2003]). iE-DAP and iQ-DAP, M3P and M4P were synthesized as described (Kitaura et al., J. Med. Chem. 25:335 [1982]) with small modification. Purification of PGN from B. subtilis 168 and C. flaccumfaciens with hydrolases, Cellosyl or recombinant AtlE (amidase domain) and the fractionation and purification of reduced B. subtilis PGN digested with Cellosyl were performed as previously described (Heilman et al., Mol. Microbiol. 24:1013 [1997]; Atrih et al., J. Bact. 181:3956 [1999]). Removal of proteins and reduction of LPS fraction. E. coli O55:B5 LPS (Sigma) was treated with proteinase K at 37° C. for 12 hr to digest contaminating proteins. To eliminate lipoproteins, LPS was subjected to modified phenol extraction with deoxycholate-containing phenol as described (Hirschfeld et al., J. Immunol. 165:618 [2000]). For reduction of carboxyl group in the LPS, the LPS was treated with 1-ethyl-3-(3-dimethylaminopropyl) carbodiimide and then reduced with NaBH4 as described (Taylor et al., Biochemistry 11:1383 [1972]). Preparation of E. coli extract. E. coli K-12 mutants were all based on the SØ864 genetic background (lacZ trp upp relA rpsL) (Neuhard and Thomassen, J. Bacteriol. 126:999). SØ874 carries a large chromosomal deletion removing the gene clusters for the biosynthesis of CA capsule and O-antigen. CLM5 is a derivative of SØ874 with a transposon insertion in the wecC gene that blocks the synthesis of ECA (Marolda et al., J. Bacteriol. 177:5539[1995]). FAM5 is a derivative of SØ874 carrying a deletion that eliminates the incorporation of heptose in the LPS core. Extracts were prepared from all of these E. coli K-12 strains and also from another E. coli K-12 strain, LCD27 YA21-6 (Obtained from Dr. Arisaka, Tokyo Institute of Technology). Bacteria were cultured overnight at 37° C. in Luria broth, killed by treatment with acetone followed by vacuum drying and finally resuspended in 10 mM HEPES. The extract was treated with 1M NaOH at 55° C. for 12 hr and neutralized with 1M HEPES (pH 7.4). The soluble fraction after centrifugation and filtration with 0.22 μm filter was applied to SUPEROSE 12 gel filtration column chromatography. Partial purification of NOD1-stimulatory molecules from E. coli and composition analyses. The amino acid composition of E. coli O55:B5 LPS was determined using AccQ·Tag amino acid analysis system (Waters, Milford, Mass.) after hydrolysis at 110° C. for 24 hr. […]

[3] = macrophages lacking NOD1, 100 ng/ml

## γ-D-glutamy-meso-diaminopimelic acid [iE-DAP]
[1]; nod1 −/− macrophages, 100 ng/ml Salmonella typhimurium LPS
  enhancement of the secretion of IL-6 induced by LPS: this effect was impaired
[2]; 100 ng/ml Salmonella typhimurium LPS
  enhancement of the secretion of IL-6 induced by LPS: enhanced the secretion of IL-6 induced by LPS
[2]
  secretion of IL-6: induced the secretion
  secretion of TNF-α: induced the secretion

## MurNAc-L-Ala-γ-D-Gln [MDP]
[1]; [3]
  secretion of IL-6: responded
  secretion of TNF-α: responded
[2]
  secretion of IL-6: induced the secretion
  secretion of TNF-α: induced the secretion
